In general, melting point refers to the temperature, or range, at which the solid turns liquid.

`CN(C)c1ccc(/C=C/C(=O)CC(=O)/C=C/c2ccc(N(C)C)cc2[N+](=O)[O-])c([N+](=O)[O-])c1`: the melting point was 245 to 250 °C.

`O=C(/C=C/c1ccc(O)cc1)CC(=O)/C=C/c1ccccc1N1CCNCC1.O=C(O)C(F)(F)F.O=C(O)C(F)(F)F` showed a melting point of 139 to 150 °C.

With `COc1cc(/C=C/C(=O)CC(=O)/C=C/c2ccc(NC(C)=O)cc2)ccc1O` [CU003, (1E,6E)-N-{4-[7-(4-hydroxy-3-methoxyphenyl)-3,5-dioxohepta-1,6-dienyl]phenyl}acetamide], the melting point was 193 to 195 °C.

The compound `COc1cc(/C=C/C(=O)CC(=O)/C=C/c2ccc(Oc3ccccc3)cc2)ccc1O` [CU004, (1E,6E)-1-(4-hydroxy-3-methoxyphenyl)-7-(4-phenoxyphenyl)hepta-1,6-diene-3,5-dione] registered a melting point of 45 to 46 °C.

In the case of `COc1cc(/C=C/C(=O)CC(=O)/C=C/c2cc(OC)c(OC)c(OC)c2)ccc1O` [CU006, (1E,6E)-1-(4-hydroxy-3-methoxyphenyl)-7-(3,4,5-trimethoxyphenyl)hepta-1,6-diene-3,5-dione], the melting point was 80 to 83 °C.

`COc1cc(/C=C/C(=O)CC(=O)/C=C/c2ccc(O)c(Cl)c2)ccc1O` [CU007, (1E,6E)-1-(3-chloro-4-hydroxyphenyl)-7-(4-hydroxy-3-methoxyphenyl)hepta-1,6-diene-3,5-dione] showed a melting point of 90 to 95 °C.

Compound `COc1cc(/C=C/C(=O)CC(=O)/C=C/c2ccc3c(c2)OCO3)ccc1O` [CU009, (1E,6E)-1-(benzo[1,3]dioxol-5-yl)-7-(4-hydroxy-3-methoxyphenyl)hepta-1,6-diene-3,5-dione] had a melting point of 149 to 152 °C.

`COc1cc(/C=C/C(=O)CC(=O)/C=C/c2ccc(SC)cc2)ccc1O` [CU012, (1E,6E)-1-(4-hydroxy-3-methoxyphenyl)-7-(4-methylthiophenyl)hepta-1,6-diene-3,5-dione] had a melting point of 147 to 149 °C.

For the compound `COc1cc(/C=C/C(=O)C(=Cc2ccncc2)C(C)=O)ccc1O` [CU014, (5E)-6-(4-hydroxy-3-methoxyphenyl)-3-(pyridin-4-ylmethylene)hex-5-ene-2,4-dione], the melting point was 92 to 95 °C.

Regarding `COc1cc(/C=C/C(=O)CC(=O)/C=C/c2ccco2)ccc1O` [CU015, (1E,6E)-1-(furan-2-yl)-7-(4-hydroxy-3-methoxyphenyl)hepta-1,6-diene-3,5-dione], the melting point lay within 48 to 50 °C.

The compound `COc1cc(/C=C/C(=O)CC(=O)/C=C/c2cccs2)ccc1O` [CU016, (1E,6E)-1-(4-hydroxy-3-methoxyphenyl)-7-(thiophen-2-yl)hepta-1,6-diene-3,5-dione] yielded a melting point of 52 to 54 °C.

Consider `COc1cc(/C=C/C(=O)CC(=O)/C=C/c2ccc(OCCCN(C)C)cc2)ccc1O` [CU018, (1E,6E)-1-[4-(3-dimethylaminopropoxy)phenyl]-7-(4-hydroxy-3-methoxyphenyl)hepta-1,6-diene-3,5-dione], for which the melting point was 155 to 159 °C.

Consider `COc1cc(/C=C/C(=O)CC(=O)/C=C/c2ccc(Cl)cc2)ccc1O` [CU020, (1E,6E)-1-(4-chlorophenyl)-7-(4-hydroxy-3-methoxyphenyl)hepta-1,6-diene-3,5-dione], for which the melting point was in the range of 59 to 61 °C.

`COc1cc(/C=C/C(=O)CC(=O)/C=C/c2cc(Cl)cc(Cl)c2O)ccc1O` [CU021, (1E,6E)-1-(3,5-dichloro-2-hydroxyphenyl)-7-(4-hydroxy-3-methoxyphenyl)hepta-1,6-diene-3,5-dione] yielded a melting point of 185 to 188 °C.

Regarding `COc1cc(/C=C/C(=O)CC(=O)/C=C/c2cccnc2)ccc1O` [CU024, (1E,6E)-1-(4-hydroxy-3-methoxyphenyl)-7-(pyridin-3-yl)hepta-1,6-diene-3,5-dione], the melting point lay in the range of 176 to 179 °C.

Compound `COc1ccc(/C=C/C(=O)CC(=O)/C=C/c2ccc(O)cc2)cc1O` [CU027, (1E,6E)-1-(3-hydroxy-4-methoxyphenyl)-7-(4-hydroxyphenyl)hepta-1,6-diene-3,5-dione] returned a melting point of 207 to 210 °C.

With `Cc1cc(/C=C/C(=O)CC(=O)/C=C/c2ccc(O)cc2)ccc1O` [CU029, (1E,6E)-1-(4-hydroxy-3-methylphenyl)-7-(4-hydroxyphenyl)hepta-1,6-diene-3,5-dione], the melting point fell in the range of 197 to 199 °C.

For `COc1cc(/C=C/C(=O)CC(=O)/C=C/c2ccc(O)c(F)c2)ccc1O` [CU032, (1E,6E)-1-(3-fluoro-4-hydroxyphenyl)-7-(4-hydroxy-3-methoxyphenyl)hepta-1,6-diene-3,5-dione], the melting point was 186 to 189 °C.

For `COc1cc(/C=C/C(=O)CC(=O)/C=C/c2ccc(N(C)C)c(OC)c2)ccc1O` [CU033, (1E,6E)-1-(4-dimethylamino-3-methoxyphenyl)-7-(4-hydroxy-3-methoxyphenyl)hepta-1,6-diene-3,5-dione], the melting point was in the range of 68 to 75 °C.

As to `COc1ccc(/C=C/C(=O)CC(=O)/C=C/c2ccc(O)c(F)c2)cc1O` [CU035, (1E,6E)-1-(3-fluoro-4-hydroxyphenyl)-7-(3-hydroxy-4-methoxyphenyl)hepta-1,6-diene-3,5-dione], the melting point was 173 to 176 °C.

The compound `COc1ccc(/C=C/C(=O)CC(=O)/C=C/c2ccc(N(C)C)c(OC)c2)cc1O` [CU036, (1E,6E)-1-(4-dimethylamino-3-methoxyphenyl)-7-(3-hydroxy-4-methoxyphenyl)hepta-1,6-diene-3,5-dione] displayed a melting point of 65 to 70 °C.

Take `O=C(/C=C/c1ccc(O)cc1)CC(=O)/C=C/c1ccc(O)c([N+](=O)[O-])c1` [CU039, (1E,6E)-1-(4-hydroxy-3-nitrophenyl)-7-(4-hydroxyphenyl)hepta-1,6-diene-3,5-dione]: the melting point was 240 to 245 °C.

With `COc1cc(/C=C/C(=O)CC(=O)/C=C/c2ccc(O)c([N+](=O)[O-])c2)ccc1O` [CU040, (1E,6E)-1-(4-hydroxy-3-methoxyphenyl)-7-(4-hydroxy-3-nitrophenyl)hepta-1,6-diene-3,5-dione], the melting point is 209 to 213 °C.

Consider `COc1ccc(/C=C/C(=O)CC(=O)/C=C/c2ccc(O)c([N+](=O)[O-])c2)cc1O` [CU041, (1E,6E)-1-(3-hydroxy-4-methoxyphenyl)-7-(4-hydroxy-3-nitrophenyl)hepta-1,6-diene-3,5-dione], for which the melting point was 220 to 224 °C.

Regarding `O=C(/C=C/c1ccc(O)cc1)CC(=O)/C=C/c1ccc(O)c(Cl)c1` [CU042, (1E,6E)-1-(3-chloro-4-hydroxyphenyl)-7-(4-hydroxyphenyl)hepta-1,6-diene-3,5-dione], the melting point lay in the range of 184 to 190 °C.

The compound `COc1ccc(/C=C/C(=O)CC(=O)/C=C/c2ccc(O)c(Cl)c2)cc1O` [CU044, (1E,6E)-1-(3-chloro-4-hydroxyphenyl)-7-(3-hydroxy-4-methoxyphenyl)hepta-1,6-diene-3,5-dione] yielded a melting point of 195 to 197 °C.

Compound `O=C(/C=C/c1ccc(O)cc1)CC(=O)/C=C/c1ccc(Cl)c(Cl)c1` [CU045, (1E,6E)-1-(3,4-dichlorophenyl)-7-(4-hydroxyphenyl)hepta-1,6-diene-3,5-dione] yielded a melting point of 83 to 85 °C.

As to `COc1cc(/C=C/C(=O)CC(=O)/C=C/c2ccc(Cl)c(Cl)c2)ccc1O` [CU046, (1E,6E)-1-(3,4-dichlorophenyl)-7-(4-hydroxy-3-methoxyphenyl)hepta-1,6-diene-3,5-dione], the melting point is 70 to 76 °C.

In turn, `COc1cc(/C=C/C(=O)CC(=O)/C=C/c2ccc(O)cc2)ccc1N(C)C` [CU048, (1E,6E)-1-(4-dimethylamino-3-methoxyphenyl)-7-(4-hydroxyphenyl)hepta-1,6-diene-3,5-dione] yielded a melting point of 84 to 86 °C.

Consider `COc1ccc(/C=C/C(=O)CC(=O)/C=C/c2ccc([N+](=O)[O-])c(OC)c2)cc1O` [CU049, (1E,6E)-1-(3-hydroxy-4-methoxyphenyl)-7-(3-methoxy-4-nitrophenyl)hepta-1,6-diene-3,5-dione], for which the melting point lay within 196 to 199 °C.

The compound `COc1cc(/C=C/C(=O)CC(=O)/C=C/c2ccc(O)cc2)ccc1[N+](=O)[O-]` [CU050, (1E,6E)-1-(4-hydroxyphenyl)-7-(3-methoxy-4-nitrophenyl)hepta-1,6-diene-3,5-dione] registered a melting point of 190 to 192 °C.

Regarding `COc1cc(/C=C/C(=O)CC(=O)/C=C/c2ccc([N+](=O)[O-])c(OC)c2)ccc1O` [CU051, (1E,6E)-1-(4-hydroxy-3-methoxyphenyl)-7-(3-methoxy-4-nitrophenyl)hepta-1,6-diene-3,5-dione], the melting point fell in the range of 157 to 163 °C.

Compound `COc1ccc(/C=C/C(=O)CC(=O)/C=C/c2ccc(O)c(C)c2)cc1O` [CU052, (1E,6E)-1-(3-hydroxy-4-methoxyphenyl)-7-(4-hydroxy-3-methylphenyl)hepta-1,6-diene-3,5-dione] came in with a melting point of 215 to 218 °C.

`COc1cc(/C=C/C(=O)CC(=O)/C=C/c2ccc(C)c(C)c2)ccc1O` [CU057, (1E,6E)-1-(3,4-dimethylphenyl)-7-(4-hydroxy-3-methoxyphenyl)hepta-1,6-diene-3,5-dione]: the melting point fell in the range of 132 to 133 °C.

With `COc1ccc(/C=C/C(=O)CC(=O)/C=C/c2ccc(C)c(C)c2)cc1O` [CU058, (1E,6E)-1-(3,4-dimethylphenyl)-7-(3-hydroxy-4-methoxyphenyl)hepta-1,6-diene-3,5-dione], the melting point is 150 to 154 °C.

`COc1ccc(/C=C/C(=O)CC(=O)/C=C/c2ccc(OC)c(O)c2)cc1` [CU065, (1E,6E)-1-(3-hydroxy-4-methoxyphenyl)-7-(4-methoxyphenyl)hepta-1,6-diene-3,5-dione]: the melting point lay within 137 to 140 °C.

Compound `COc1ccccc1/C=C/C(=O)CC(=O)/C=C/c1ccc(O)cc1` [CU066, (1E,6E)-1-(4-hydroxyphenyl)-7-(2-methoxyphenyl)hepta-1,6-diene-3,5-dione] registered a melting point of 171 to 178 °C.

`COc1cc(/C=C/C(=O)CC(=O)/C=C/c2ccccc2OC)ccc1O` [CU067, (1E,6E)-1-(4-hydroxy-3-methoxyphenyl)-7-(2-methoxyphenyl)hepta-1,6-diene-3,5-dione]: the melting point is 61 to 66 °C.

As to `COc1ccc(/C=C/C(=O)CC(=O)/C=C/c2ccccc2OC)cc1O` [CU068, (1E,6E)-1-(3-hydroxy-4-methoxyphenyl)-7-(2-methoxyphenyl)hepta-1,6-diene-3,5-dione], the melting point was in the range of 102 to 108 °C.
